In article PMC7602804 (Nutrients, 2020):

Legend:
[1] = test system: porcine brain endothelial cell (PBEC) monolayers; test: Apical to basolateral transport of milk peptides across porcine brain endothelial cell (PBEC) monolayers, blood-brain barrier model; assay type: in vitro ADME; details: A-B, HBSS + 10 mM HEPES, 2.5 h, LC-MS/MS; for Peptide identified in the basal compartment (brain side) of the PBEC BBB model (transported): primary PBEC on polyester inserts 0.4 μm, astrocyte conditioned medium, TEER higher than 800 Ω cm^2, mix of 192 milk peptides 0.1 mg/mL apical, five independent studies, αS1 peptide 'or' its truncated peptides stated collectively; for Peptides identified in the basolateral chamber of PBEC monolayers after synthetic PIGSENSEKTTMPLW was added apically: synthetic PIGSENSEKTTMPLW 2 µg/mL apical
Method: Capillaries were isolated from the brain cortices of domestic pigs 5–6 months old as previously described. PBECs were cultured by plating the capillaries in T75 flasks coated with collagen IV (500 µg/mL) and fibronectin (100 µg/mL) in DMEM-F12 medium, supplemented with 10% plasma-derived serum (First Link, Wolverhampton, UK), heparin (15 U), 100 units/mL of penicillin and 100 µg/mL of streptomycin (PBEC growth medium), and cultured in an incubator with humidified 5% CO2/95% air at 37 °C. Puromycin (4 µg/mL) was added to the growth medium for the first three days to obtain a pure culture of PBECs.
Astrocyte conditioned medium was collected every third day from primary rat astrocytes, sterile filtered and frozen until use. Isolation of primary rat astrocytes and preparation of astrocyte conditioned media were carried out as described in [20].
PBECs were grown until 70–80% confluency as described above and then passaged onto polyester culture inserts with a pore size of 0.4 μm and a growth area of 1.12 cm^2 (Costar, Corning, NY, USA) at a density of 1.1 × 10^5 cells/cm^2 in the PBEC growth medium. In the basolateral chamber, the medium consisted of 1 mL of PBEC growth medium and 0.5 mL of astrocyte conditioned medium. The medium was supplemented with differentiation factors: 550 nM of hydrocortisone, 250 μM of 8-(4-chlorophenylthio)adenosine-3′,5′-cyclic monophosphate (cAMP) and 17.5 μM of RO-201724 two days after seeding. The next day, the integrity of the PBEC monolayer was confirmed by measuring the TEER. Only PBEC monolayers with TEER values higher than 800 Ω cm^2 were used for the transport analysis.
(§1) Following the TEER value measurement, the Caco-2 and PBEC monolayers were gently washed twice with phosphate-buffered saline, and the transport medium (Hanks’ Balanced Salt solution supplemented with 10 mM of HEPES) was added to the apical and basolateral compartments. The inserts were incubated for 15 min or 2.5 h with the purified milk peptides (0.1 mg/mL) or the synthetic PIGSENSEKTTMPLW peptide (2 µg/mL), after which medium from the apical and basolateral compartments were collected for liquid chromatography tandem mass spectrometry (LC-MS/MS) analysis. Inserts incubated with a medium without peptides served as the control in the transport experiments. Membrane integrity was validated by addition of D-[1-^14C]-Mannitol (3.5 µM, 56.8 mCi/mmol) (Perkin Elmer, Waltham, MA, USA) to the upper chamber of the culture inserts with or without milk peptides for 2.5 h. The passive permeability experiments were performed on four or five individual culture inserts. Basolateral samples were mixed with Ultima Gold liquid scintillation fluid (Perkin Elmer) and counted in a Tri-Carb 2810 TR scintillation counter (Perkin Elmer). The apparent permeability coefficient (Papp, cm/s) was determined as Papp = (dQ/dt)/(AC0) where dQ/dt is the steady state flux (cpm/s), A is the surface area of the cell culture insert membrane and C0 is the initial concentration in the apical compartment (cpm/mL).
LC-MS/MS analysis was performed on a TripleTOF 6600 mass spectrometer equipped with an Exigent nanoLC 415 system (AB Sciex, Les Ulis, France). All samples were micro-purified using 3 M Empore C18 discs packed in pipette tips. The lyophilized samples were dissolved in 0.1% formic acid, injected on a trap column (2 cm × 100 µm inner diameter) and separated on an analytical column packed in-house in a pulled emitter (15 cm × 75 µm inner diameter). All columns were packed with ReproSil-Pur C18-AQ 3 µm resin (courtesy of Dr. Marisch, Ammerbuch-Entringen, Germany). […]

Caco-2 monolayers = test: Apical to basolateral transport of milk peptides across Caco-2 monolayers (LC-MS/MS of basolateral medium); assay type: in vitro ADME, human; details: A-B, HBSS + 10 mM HEPES, 2.5 h; for Peptide identified in the basolateral chamber of Caco-2 monolayers (transported): Caco-2, 3 weeks on PET inserts 0.4 μm, TEER above 400 Ω cm^2, mix of 192 purified milk peptides 0.1 mg/mL apical, LC-MS/MS of basolateral medium, identified in two out of three experiments; for Peptides identified in the basolateral chamber of Caco-2 monolayers after synthetic PIGSENSEKTTMPLW was added apically: synthetic PIGSENSEKTTMPLW 2 µg/mL apical, LC-MS/MS
Method: The human colorectal adenocarcinoma cell line, Caco-2, was obtained from DSMZ (Braunschweig, Germany). The cells were grown to 50–60% confluence in Dulbecco’s Modified Eagle Medium (DMEM) Glutamax cell culture medium, supplemented with 10% heat-inactivated fetal bovine serum, 100 units/mL of penicillin and 100 μg/mL of streptomycin (all from Invitrogen, Carlsbad, CA, USA) in a humidified 5% CO2/95% air atmosphere at 37 °C. The cells used in the experiments were between passages 30 and 40.
The Caco-2 cells used for transport studies were seeded in polyethylene terephthalate culture inserts, with a pore size of 0.4 μm and a growth area of 0.33 cm^2 at a density of approximately 25,000 cells/insert. The Caco-2 cells were grown for three weeks on the porous membrane before they were used for transepithelial transport. The integrity of the monolayers was confirmed by measuring the TEER using a Millicell ERS-2 volt ohmmeter. Only Caco-2 monolayers with TEER values above 400 Ω cm^2 were used for the transport analysis.
as §1
LC-MS/MS analysis was performed on a TripleTOF 6600 mass spectrometer equipped with an Exigent nanoLC 415 system (AB Sciex, Les Ulis, France). All samples were micro-purified using 3 M Empore C18 discs packed in pipette tips. The lyophilized samples were dissolved in 0.1% formic acid, injected on a trap column (2 cm × 100 µm inner diameter) and separated on an analytical column packed in-house in a pulled emitter (15 cm × 75 µm inner diameter). All columns were packed with ReproSil-Pur C18-AQ 3 µm resin (courtesy of Dr. Marisch, Ammerbuch-Entringen, Germany). Peptides were eluted directly into the mass spectrometer with a linear gradient from 5 to 35% solvent B (0.1% formic acid in acetonitrile) for 20 min with a flowrate of 250 nL/min, followed after 10 min with 100% solvent B. Data files were converted to Mascot Generic Format using the Raw Converter (version 1.1.0.18) (http://fields.scripps.edu/rawconv/) or the AB Sciex MS Data Converter beta 1.1 (AB Sciex, Les Ulis, France). The generated peak lists were searched against the Bos taurus proteome (UniProt database, https://www.uniprot.org)) using an in-house Mascot search engine (Matrix Science, London, UK). The searches were made without specifying a protease and with oxidation (Met) and phosphorylation (ST) as variable modifications. Peptide tolerance was set to 10 ppm and MS/MS tolerance was set to 0.2 Da. […]

[2] = test system: pepsin, then trypsin, chymotrypsin and elastase; test: In vitro simulation of gastrointestinal digestion; assay type: in vitro ADME; details: 1 mg/mL, pepsin 1:100 w/w, 0.15 M NaCl pH 2.5, 60 min, 37 °C, chymotrypsin 1:100 and elastase 1:500 w/w, 50 mM ammonium bicarbonate pH 7.6, 37 °C, sampled 5, 30, 60 and 270 min, MALDI-MS (osteopontin: SDS-PAGE)
Method: The purified milk peptides and the synthesized PIGSENSEKTTMPLW and […] peptides were subjected to digestion, essentially as described in [5, 26] with few modifications. The peptides were dissolved in 0.15 M of NaCl with a pH of 2.5 at a concentration of 1 mg/mL and incubated with pepsin from porcine gastric mucosa in a 1:100 w/w enzyme to substrate ratio for 60 min at 37 °C. Before digestion with pancreatic proteases, the sample was lyophilized and washed twice in deionized water. Trypsin and chymotrypsin from a bovine pancreas (Worthington Biochemical Corporation, NJ, USA) (1:100 w/w) and elastase (Worthington) (1:500 w/w) were added in 50 mM of ammonium bicarbonate buffer (pH = 7.6) and the mixture was incubated for 60 min at 37 °C. In digests of the synthesized peptides, aliquots were sampled and analyzed after 5 min, 30 min, 60 min and 270 min incubation with the intestinal enzymes. Bovine milk osteopontin was purified as previously described and incubated with the digestive proteases to validate their activity. The digested milk peptides were separated by RP-HPLC on an Aeris C4 widepore column (Phenomenex, Værløse, Denmark) connected to a Shimadzu (Kyoto, Japan) HPLC system. The peptides were separated in 0.1% TFA (buffer A) and eluted with a gradient of 60% acetonitrile in 0.1% TFA (buffer B) at 40 °C. The gradient was developed over 59 min (0–5 min: 0% buffer B; 5–49 min: 0–98% buffer B; 49–59 min: 98% buffer B) at a flow rate of 0.85 mL/min. The peptides were detected by measuring the absorbance at 226 nm and analyzed by matrix-assisted laser desorption ionization time-of-flight mass spectrometry (MALDI-MS).
MALDI-MS was performed using a Bruker Autoflex III instrument (Bruker Daltonics, Bremen, Germany). The analysis was performed using a saturated solution of α-cyano-4-hydroxycinnamic acid. The instrument was operated in reflected positive ionization mode and calibrated in the mass range of 1000 to 3200 Da using a peptide calibration standard (Bruker Daltonics, Bremen, Germany). The theoretical peptide masses were calculated using the General Protein/Mass Analysis for Windows software (Lighthouse Data, Odense, Denmark).

[3] = test system: pepsin from porcine gastric mucosa, then trypsin and chymotrypsin from a bovine pancreas and elastase; test: synthetic peptide: pepsin in 0.15 M NaCl pH 2.5 (1:100 w/w, 60 min), then trypsin, chymotrypsin (1:100 w/w) and elastase (1:500 w/w) in 50 mM ammonium bicarbonate pH 7.6; details: 37 °C, up to 270 min

| Substance | Peptide identified in the basal compartment (brain side) of the PBEC BBB model (transported) [1] | Peptide identified in the basolateral chamber of Caco-2 monolayers (transported) (Caco-2 monolayers) | further results |
| --- | --- | --- | --- |
| AAPAGAAIQS [endogenous bovine milk peptide from the polymeric immunoglobulin receptor] | identified in the basal compartment of the BBB model | not transported across the Caco-2 monolayers |  |
| AAPAGAAIQSR [endogenous bovine milk peptide from the polymeric immunoglobulin receptor] | identified in the basal compartment of the BBB model | not transported across the Caco-2 monolayers |  |
| Ac-YDGRGDSVVYGLRSKSKKFRR-NH2 [reference compound] |  |  | Stability of the synthetic peptide / control in simulated gastrointestinal digestion [2]: cleaved after 5 min incubation with the proteases |
| EVIESPPEINTVQVTSTAV [endogenous bovine milk peptide from κ-casein] |  | identified in the basolateral chamber |  |
| KNTMEHVSSSEESIISQETY [endogenous bovine milk peptide from αS2-casein] |  | identified in the basolateral chamber |  |
| PIGSENSEKTT [truncated derivative of the αS1-casein peptide …] | identified in all experiments |  | Peptides identified in the basolateral chamber of PBEC monolayers after synthetic PIGSENSEKTTMPLW was added apically [1]: identified in the basolateral chamber of both monolayers; Peptides identified in the basolateral chamber of Caco-2 monolayers after synthetic PIGSENSEKTTMPLW was added apically (Caco-2 monolayers): identified in the basolateral chamber of both monolayers |
| PIGSENSEKTTMP [truncated derivative of the αS1-casein peptide …] | identified in all experiments | identified in the basolateral chamber | Peptides identified in the basolateral chamber of PBEC monolayers after synthetic PIGSENSEKTTMPLW was added apically [1]: identified in the basolateral chamber of both monolayers; Peptides identified in the basolateral chamber of Caco-2 monolayers after synthetic PIGSENSEKTTMPLW was added apically (Caco-2 monolayers): identified in the basolateral chamber of both monolayers |
| PVLGPVRGPFPIIV [endogenous bovine milk peptide from β-casein] | identified in the basal compartment of the BBB model | not transported across the Caco-2 monolayers |  |
| YDGRGDSVVYGLRSKSKKFRR (N-terminally acetylated and amidated at the C terminal) |  |  | fragment found [3]: YDGRGDSVVY, 5 min |
| osteopontin: bovine milk osteopontin, purified, incubated with the digestive proteases to validate their activity [reference compound] |  |  | Stability of the synthetic peptide / control in simulated gastrointestinal digestion [2]: cleaved by all the proteases |
